In ChEMBL document CHEMBL4342480, “Design of Dual Inhibitors of Soluble Epoxide Hydrolase and LTA4 Hydrolase” (ACS Med Chem Lett, 2020):

How the values were obtained:
[1] = target: T1, Bifunctional epoxide hydrolase 2 (Homo sapiens, UniProt P34913); assay: Inhibition of full length human soluble epoxide hydrolase (1 to 555 residues) expressed in Escherichia coli BL21(DE3) using non-fluorescent PHOME as substrate preincubated for 30 mins followed by substrate addition and measured for 30 mins by fluorescence based assay
T1 sequence (P34913 whole entry): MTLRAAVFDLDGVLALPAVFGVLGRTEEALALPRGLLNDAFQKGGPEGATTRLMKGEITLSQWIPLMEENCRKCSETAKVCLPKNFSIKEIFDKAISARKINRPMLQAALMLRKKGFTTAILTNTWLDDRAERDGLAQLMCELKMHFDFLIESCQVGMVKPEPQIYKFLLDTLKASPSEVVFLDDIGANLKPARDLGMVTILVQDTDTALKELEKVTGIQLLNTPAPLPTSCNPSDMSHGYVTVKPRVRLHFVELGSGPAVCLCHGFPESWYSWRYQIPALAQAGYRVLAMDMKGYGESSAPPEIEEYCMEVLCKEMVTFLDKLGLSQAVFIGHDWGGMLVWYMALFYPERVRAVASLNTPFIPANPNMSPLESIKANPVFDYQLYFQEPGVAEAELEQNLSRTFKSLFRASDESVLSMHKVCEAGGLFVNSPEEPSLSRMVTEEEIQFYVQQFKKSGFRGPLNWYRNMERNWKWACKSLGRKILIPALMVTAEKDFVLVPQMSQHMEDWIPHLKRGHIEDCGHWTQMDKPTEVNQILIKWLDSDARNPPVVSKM

[2] = target: T2, Leukotriene A-4 hydrolase (Homo sapiens, UniProt P09960); assay: Inhibition of (His)6 tagged human recombinant LTA4H expressed in Escherichia coli BL21(DE3) using non-fluorescent L-arginine-7-amino-4-methylcoumarine as substrate preincubated for 30 mins followed by substrate addition and measured for 30 mins by fluorescence based assay
T2 sequence (P09960 whole entry): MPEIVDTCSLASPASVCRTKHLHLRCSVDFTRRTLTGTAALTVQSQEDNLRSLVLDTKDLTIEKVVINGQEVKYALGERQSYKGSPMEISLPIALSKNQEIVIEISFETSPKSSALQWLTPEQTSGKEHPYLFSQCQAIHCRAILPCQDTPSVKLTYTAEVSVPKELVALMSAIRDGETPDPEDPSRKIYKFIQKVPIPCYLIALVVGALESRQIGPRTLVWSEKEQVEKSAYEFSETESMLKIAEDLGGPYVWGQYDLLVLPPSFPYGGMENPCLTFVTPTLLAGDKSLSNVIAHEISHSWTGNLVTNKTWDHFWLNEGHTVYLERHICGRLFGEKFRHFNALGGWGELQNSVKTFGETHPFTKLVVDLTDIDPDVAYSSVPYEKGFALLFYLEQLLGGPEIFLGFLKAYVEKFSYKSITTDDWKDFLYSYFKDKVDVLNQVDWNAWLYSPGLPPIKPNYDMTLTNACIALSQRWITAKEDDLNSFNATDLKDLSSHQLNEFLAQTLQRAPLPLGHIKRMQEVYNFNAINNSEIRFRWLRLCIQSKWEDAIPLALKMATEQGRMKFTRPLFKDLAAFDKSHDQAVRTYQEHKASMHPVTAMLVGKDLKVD

SMILES	IC50 [1] [µM]	IC50 [2] [µM]
O=C(CCc1ccc(OCc2ccncc2)cc1)NCCc1ccc(F)cc1	0.8	> 30
O=C(Cc1ccc(Oc2ccccc2)cc1)NCCc1ccc(OC(F)(F)F)cc1	0.5	–
O=C(Cc1ccc(Oc2nc3ccccc3s2)cc1)NCCc1ccc(F)cc1	0.13	0.24
O=C(Cc1ccc(Oc2nc3ccc(F)cc3s2)cc1F)NCCc1ccc(F)cc1	27.5	> 30
O=C(Cc1ccc(Oc2ccccc2)cc1)NCCc1ccc(C(F)(F)F)cc1	0.5	–
O=C(Cc1ccc(Oc2nc3cc(F)ccc3s2)cc1F)NCCc1ccc(F)cc1	22.5	> 30
O=C(Cc1ccc(Oc2nc3ccccc3s2)cc1F)NCCc1ccccc1F	0.6	3.8
O=C(Cc1ccc(Oc2nc3ccc(C(F)(F)F)cc3s2)cc1F)NCCc1ccc(F)cc1	20.1	> 30
COC(=O)c1ccc(CNC(=O)Cc2ccc(Oc3nc4ccccc4s3)cc2F)cc1	0.1	> 30
O=C(Cc1ccc(Oc2nc3ccccc3s2)cc1F)NCCc1cccc(F)c1	0.4	–
Fc1ccc(CCNCc2ccc(Oc3ccccc3)cc2)cc1	3.6	0.2
Cc1ccc(CCNC(=O)Cc2ccc(Oc3ccccc3)cc2)cc1	1.1	> 30
O=C(Cc1ccc(Oc2ccccc2)cc1)NCCc1ccc(F)cc1	0.9	–
O=C(Cc1ccc(Oc2ccccc2)cc1)NCCc1ccc(Cl)cc1	1.8	–
O=C(Cc1ccc(Oc2nc3cc(C(F)(F)F)ccc3s2)cc1F)NCCc1ccc(F)cc1	1.7	> 30
O=C(Cc1ccc(Oc2nc3ccccc3s2)cc1F)NCc1c[nH]c2cc(F)ccc12	5.6	0.9
